In US20200121618A1, “METHODS AND COMPOSITIONS FOR TREATMENT OF INFLAMMATION AND OXIDATIVE STRESS” (BIOELECTRON TECHNOLOGY CORPORATION, priority 2017, published 2020):

Assays:
Male C57BL/6 mice = assay: APAP-induced liver damage in mice, serum liver enzymes ALT and AST; type: in vivo; conditions: for mean serum concentration of liver enzyme (ALT) versus APAP alone: 300 mg/kg SC pre-dosing for 4 days
Method: Compounds described herein were tested to determine their effects on liver enzyme concentrations following introduction of APAP in sufficient quantity to cause liver trauma.
Male C57BL/6 mice (Charles River Laboratories), aged 10-12 weeks, were randomly and prospectively assigned to receive treatment with either a test compound or vehicle only. Prior to commencement of testing, the animals had been pre-dosed with a test compound of either EPI-A0001 ((RRR)-alpha tocopherol quinone) or EPI-743 (REE)-alpha tocotrienol quinone) via subcutaneous injection for 4 days at levels of 300 mg/kg body weight dose(s). One additional test compound was administrated at 4 hours prior to commencement of testing. The mice were fasted for 12 hours prior to being challenged with 300 mg/kg body weight with APAP or an equal volume of the dosing vehicle (sterile saline) via […].
The animals were each administered with a single subcutaneous (SC) 300 mg/kg body weight dose of APAP or vehicle only formulation as described herein. All animals were dosed at approximately the same time on the dosing day (±1 hour). Subcutaneous doses were administered via bolus injection between the skin and underlying layers of tissue in the scapular region on the back of each animal. The hair was not clipped from the injection site prior to dosing. The injection site was monitored for necrosis and other changes to the skin and hair.
At the time of sample collection, livers were collected for histopathology and metabolomics analyses and blood was collected for metabolomics analyses or separated into serum for the liver enzyme (AST, ALT) analyses.

[1] = tested on: Human Aortic Endothelial Cells (HAEC); assay: Cell viability via normalized ATP levels in HAEC; type: cell-based; conditions: higher dosing levels; 6 hours; Donors 486 and 662; FIGS. 13 and 14
Method: (§1) HAEC cells were cultured and used at passage 6. Cells were seeded in clear bottom, black wall 96-well tissue culture-treated polystyrene plates by resuspending a cell suspension at a density of 150,000 cells/mL in growth medium, then dispensing 100 microliters of cell suspension per well using an electronic multichannel pipette, corresponding to 15,000 cells/well (one plate per donor). The cell-containing plates were incubated 3 hours at 37° C. in an atmosphere with 95% humidity and 5% CO2 to allow attachment of the cells to the culture plate.
(§2) Test compounds were then added to varying final concentrations using the Tecan D300e Digital Dispenser, with subsequent back-filling with DMSO diluent to a final concentration of 0.6% (v/v). Cell plates were incubated for 20 hours at 37° C. in an atmosphere of 5% CO2 and 95% humidity.
FIGS. 7-14 present an expanded array of pro-inflammatory cytokines, including IL-6, IL-8, and TNFa (Tumor Necrosis Factor alpha). […] In these figures, GT is gamma-tocopherol, and DT is delta-tocopherol.

[2] = tested on: Human Aortic Endothelial Cells (HAEC) stimulated with IL-1β; assay: Suppression of cytokine release from IL-1β-stimulated endothelial cells (Meso Scale); type: cell-based; conditions: for drop in levels of IL-6: versus DMSO control and alpha-tocopherol, Donors 1 and 2; for difference in cytokine suppression between diastereomers: A0001-RRR versus A0001-SRR
Method: Human Aortic Endothelial Cells (HAEC) stimulated with IL-1β result in the secretion of pro-inflammatory cytokines IL-6, IL-8 and MCP-1 as described in Wu et al., Atherosclerosis 147, 297-307 (1999). The detection of these secreted cytokines in the presence or absence of compounds was performed using Meso Scale technology.
HAEC cells from two donors (Catalog no. 2535), EGM-2 media with BulletKit supplements (Catalog no. 3162) were purchased from Lonza. IL-1β (Catalog no. 200-01B) was purchased from Peprotech. Custom MSD U-plex plates with assays to detect IL-6, IL-8 and TNF-α (Catalog no. K15067L) were purchased from Meso Scale Discovery. The cells were grown in tissue culture-treated flasks according to Lonza's instructions.
Test samples were supplied in 1.5 mL glass vials. The compounds were diluted with an appropriate volume of DMSO to result in a 10 mM stock solution. Once dissolved, they were stored at −20° C.
as §1, §2
IL-1β was then added to a final concentration of 10 nanograms/mL and then cell plates were incubated at 37° C. in an atmosphere of 5% CO2 and 95% humidity for 6 hours. Media was collected in a separate polypropylene plate, foil sealed and frozen at −80° C. for up to 96 hours.
Frozen media samples were thawed on ice and IL-6, IL-8 and TNF-alpha were measured using the Meso Scale multiplex assay according to the manufacturer's instructions. Included on each MSD plate was a dilution of IL-6, IL-8 and TNF-alpha standards to accurately quantify the secreted proteins in the media.

[3] = Miscibility / solubility description; type: physicochemical
[4] = 4 hours, APAP 300 mg/kg, FIG. 1
[5] = 24 hours, 300 mg/kg SC pre-dosing, APAP 300 mg/kg, FIGS. 3 and 4

## CC(C)=CCC/C(C)=C/CC/C(C)=C/CCC(C)(O)CCC1=C(C)C(=O)C(C)=C(C)C1=O (stereo not drawn) [EPI-743, REE-alpha tocotrienol quinone]
Male C57BL/6 mice; [4]
  mean serum concentration of liver enzyme (ALT) versus APAP alone: reduction in mean serum concentrations
Male C57BL/6 mice; 4 hours, 300 mg/kg SC pre-dosing, APAP 300 mg/kg, 3 of 10, FIG. 2
  share of animals with AST levels near zero: 30%
Male C57BL/6 mice; 4 hours, 300 mg/kg SC pre-dosing, APAP 300 mg/kg, 4 of 10, FIG. 1
  share of animals with ALT near zero: 40%
Male C57BL/6 mice; [5]
  individual ALT and AST data points: several data points at or near zero
  mean serum concentration level of ALT and AST versus APAP alone (G4): reduction in mean serum concentration level

## CC1=C(C)C(=O)C(CCC(C)(O)CCCC(C)CCCC(C)CCCC(C)C)=C(C)C1=O (stereo not drawn) [A0001, RRR-alpha tocopherol quinone]
[1]
  effect on cell viability via normalized ATP levels: only a slight effect
[2]; 7.5 μM, 6 hours IL-1β
  IL-6 suppression: no longer evident
[2]; 15 μM, 6 hours IL-1β, compared with 60 μM and 30 μM
  suppression of IL-6 levels: not as dramatic
[2]; 30 μM, 6 hours IL-1β
  drop in levels of IL-6: > 50%
[2]; 60 μM, 6 hours IL-1β
  drop in levels of IL-6: > 50%
[2]; 7.5-60 μM, 6 hours, FIGS. 5 and 6
  dose dependence of IL-6 suppression: dosing dependent effect
[2]; 6 hours, Donors 486 and 662
  difference in cytokine suppression between diastereomers: small variation
[2]; 6 hours, Donors 486 and 662, FIGS. 7-12
  suppression of the various cytokines (IL-6, IL-8, TNFa): dose dependent suppression
[3]
  miscibility with other oils: infinitely miscible
  solubility in aqueous solvents: practically insoluble
Male C57BL/6 mice; [4]
  mean serum concentration of liver enzyme (ALT) versus APAP alone: reduction in mean serum concentrations
Male C57BL/6 mice; [5]
  mean serum concentration level of ALT and AST versus APAP alone (G4): reduction in mean serum concentration level

## CC1=C(C)C(=O)C(CC[C@@](C)(O)CCC[C@H](C)CCC[C@H](C)CCCC(C)C)=C(C)C1=O [A0001-SRR]
[2]; 6 hours, Donors 486 and 662
  difference in cytokine suppression between diastereomers: small variation

## CC(=O)Nc1ccc(O)cc1 [APAP, Acetaminophen, reference compound]
Male C57BL/6 mice; APAP 300 mg/kg alone (G3), 4 hours, FIG. 1
  mean level of ALT in serum after APAP introduction: approximately 3000 U/L
Male C57BL/6 mice; APAP 300 mg/kg alone (G3), 4 hours, FIG. 2
  mean level of AST in serum after APAP introduction: ~3200 U/L
